The target in this assay is GLP-1 Receptor (Homo sapiens, UniProt P43220). Nature of the assay: GLP-1R agonist cAMP stimulation assay (HEK293/GLP1R/CRE-LUC cells, cAMP dynamic 2 Kit). The assay is classed as cell-based. Conditions: HEK293/CRE-Luc cell line stably expressing the GLP-1 Receptor, 30 min at 37° C. The gist of the method:
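cAMP measured by HTRF competition (d2-labelled cAMP with cryptate antibody, 1 h, room temperature, protected from light). Before that, GLP1R/CRE-Luc HEK293 cells (1000/well) were exposed for 30 min at 37 °C to half-log compound dilutions in DPBS containing IBMX 0.5 mM and BSA 0.1%.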
Chain of GLP-1 Receptor (P43220 24-463, species assumed): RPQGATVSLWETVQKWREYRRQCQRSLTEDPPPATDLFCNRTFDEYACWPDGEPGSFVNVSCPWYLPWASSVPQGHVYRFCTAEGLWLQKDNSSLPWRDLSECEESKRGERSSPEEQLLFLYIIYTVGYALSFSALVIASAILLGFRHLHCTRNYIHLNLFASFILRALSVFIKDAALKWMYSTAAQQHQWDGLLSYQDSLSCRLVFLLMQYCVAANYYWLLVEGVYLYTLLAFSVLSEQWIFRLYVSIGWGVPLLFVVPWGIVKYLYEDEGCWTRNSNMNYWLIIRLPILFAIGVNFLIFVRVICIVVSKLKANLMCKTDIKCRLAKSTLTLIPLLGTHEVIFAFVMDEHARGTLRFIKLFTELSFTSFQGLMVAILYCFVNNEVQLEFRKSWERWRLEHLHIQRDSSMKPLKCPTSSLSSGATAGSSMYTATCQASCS
What is called EC50 is the concentration giving half of the maximal effect. On to `O=C(Nc1ccc2c(c1)nc(CN1CCC(c3cccc(OCc4ccc(Cl)cc4F)n3)CC1)n2C[C@@H]1CCO1)[C@@H]1COC2(CCC2)C1` [Compound 201a, (7S)—N-{2-[(4-{6-[(4-chloro-2-fluorophenyl)methoxy]pyridin-2-yl}piperidin-1-yl)methyl]-1-{[(2S)-oxetan-2-yl]methyl}-1H-1,3-benzodiazol-5-yl}-5-oxaspiro[3.4]octane-7-carboxamide], for which the EC50 was found to be 3.1 nM.

`CN1CCCC(C(=O)Nc2ccc3c(c2)nc(CN2CCC(c4cccc(OCc5ccc(Cl)cc5F)n4)CC2)n3C[C@@H]2CCO2)C1` (stereo partly drawn) [Compound 202a, N-{2-[(4-{6-[(4-chloro-2-fluorophenyl)methoxy]pyridin-2-yl}piperidin-1-yl)methyl]-1-{[(2S)-oxetan-2-yl]methyl}-1H-1,3-benzodiazol-5-yl}-1-methylpiperidine-3-carboxamide] returned an EC50 of 6 nM. Compound `O=C(Nc1ccc2c(c1)nc(CN1CCC(c3cccc(OCc4ccc(Cl)cc4F)n3)CC1)n2C[C@@H]1CCO1)C1CCCNC1` (stereo partly drawn) [Compound 203a, N-{2-[(4-{6-[(4-chloro-2-fluorophenyl)methoxy]pyridin-2-yl}piperidin-1-yl)methyl]-1-{[(2S)-oxetan-2-yl]methyl}-1H-1,3-benzodiazol-5-yl}piperidine-3-carboxamide] gave an EC50 of 3.2 nM.

Consider `O=C(Nc1ccc2c(c1)nc(CN1CCC(c3cccc(OCc4ccccc4)n3)CC1)n2C[C@@H]1CCO1)c1cccnc1` [Compound 204a, N-[2-({4-[6-(benzyloxy)pyridin-2-yl]piperidin-1-yl}methyl)-1-{[(2S)-oxetan-2-yl]methyl}-1H-1,3-benzodiazol-5-yl]pyridine-3-carboxamide], for which a half-maximal response (EC50) required 0.84 nM. The value for `O=C(Nc1ccc2c(c1)nc(CN1CCC(c3cccc(OCc4ccc(Cl)cc4F)n3)CC1)n2C[C@@H]1CCO1)N1CCC(F)(F)C1` [Compound 205a, N-{2-[(4-{6-[(4-chloro-2-fluorophenyl)methoxy]pyridin-2-yl}piperidin-1-yl)methyl]-1-{[(2S)-oxetan-2-yl]methyl}-1H-1,3-benzodiazol-5-yl}-3,3-difluoropyrrolidine-1-carboxamide] was 2.8 nM. The value for `O=C(Nc1ccc2c(c1)nc(CN1CCC(c3cccc(OCc4ccc(Cl)cc4F)n3)CC1)n2C[C@@H]1CCO1)N1CCC(F)C1` (stereo partly drawn) [Compound 206a, N-{2-[(4-{6-[(4-chloro-2-fluorophenyl)methoxy]pyridin-2-yl}piperidin-1-yl)methyl]-1-{[(2S)-oxetan-2-yl]methyl}-1H-1,3-benzodiazol-5-yl}-3-fluoropyrrolidine-1-carboxamide] was 0.78 nM; that for `O=C(Nc1ccc2c(c1)nc(CN1CCC(c3cccc(OCc4ccc(Cl)cc4F)n3)CC1)n2C[C@@H]1CCO1)N1CCC(O)C1` (stereo partly drawn) [Compound 207a, N-{2-[(4-{6-[(4-chloro-2-fluorophenyl)methoxy]pyridin-2-yl}piperidin-1-yl)methyl]-1-{[(2S)-oxetan-2-yl]methyl}-1H-1,3-benzodiazol-5-yl}-3-hydroxypyrrolidine-1-carboxamide] was 0.39 nM; that for `CNc1c(Nc2ccc3c(c2)nc(CN2CCC(c4cccc(OCc5ccc(Cl)cc5F)n4)CC2)n3C[C@@H]2CCO2)c(=O)c1=O` [Compound 208a, 3-({2-[(4-{6-[(4-chloro-2-fluorophenyl)methoxy]pyridin-2-yl}piperidin-1-yl)methyl]-1-{[(2S)-oxetan-2-yl]methyl}-1H-1,3-benzodiazol-5-yl}amino)-4-(methylamino)cyclobut-3-ene-1,2-dione] was 1.8 nM. As to `Fc1cc(Cl)ccc1COc1cccc(C2CCN(Cc3nc4cc(-c5cn(C6CCCOC6)nn5)ccc4n3C[C@@H]3CCO3)CC2)n1` (stereo partly drawn) [Compound 209a, 2-[(4-{6-[(4-chloro-2-fluorophenyl)methoxy]pyridin-2-yl}piperidin-1-yl)methyl]-5-[1-(oxan-3-yl)-1H-1,2,3-triazol-4-yl]-1-{[(2S)-oxetan-2-yl]methyl}-1H-1,3-benzodiazole], the EC50 was 3.2 nM. The value for `Cc1cn(-c2ccc3c(c2)nc(CN2CCC(c4cccc(OCc5ccc(Cl)cc5F)n4)CC2)n3C[C@@H]2CCO2)nn1` [Compound 210a, 2-[(4-{6-[(4-chloro-2-fluorophenyl)methoxy]pyridin-2-yl}piperidin-1-yl)methyl]-5-(4-methyl-1H-1,2,3-triazol-1-yl)-1-{[(2S)-oxetan-2-yl]methyl}-1H-1,3-benzodiazole] was 4.2 nM; that for `Fc1cc(Cl)ccc1COc1cccc(C2CCN(Cc3nc4cc(-n5cc(C6CCCOC6)nn5)ccc4n3C[C@@H]3CCO3)CC2)n1` (stereo partly drawn) [Compound 211a, 2-[(4-{6-[(4-chloro-2-fluorophenyl)methoxy]pyridin-2-yl}piperidin-1-yl)methyl]-5-[4-(oxan-3-yl)-1H-1,2,3-triazol-1-yl]-1-{[(2S)-oxetan-2-yl]methyl}-1H-1,3-benzodiazole] was 3.6 nM; that for `Nc1cccc(-c2ccc3c(c2)nc(CN2CCC(c4cccc(OCc5ccc(Cl)cc5F)n4)CC2)n3C[C@@H]2CCO2)n1` [Compound 212a, 6-{2-[(4-{6-[(4-chloro-2-fluorophenyl)methoxy]pyridin-2-yl}piperidin-1-yl)methyl]-1-{[(2S)-oxetan-2-yl]methyl}-1H-1,3-benzodiazol-5-yl}pyridin-2-amine] was 7.5 nM. The value for `O=C(O)c1ccc2c(c1)nc(CN1CCC(c3cccc(OCc4ccc(Cl)cc4F)n3)CC1)n2C[C@@H]1CCO1` [Compound 213a, 2-[(4-{6-[(4-chloro-2-fluorophenyl)methoxy]pyridin-2-yl}piperidin-1-yl)methyl]-1-{[(2S)-oxetan-2-yl]methyl}-1H-1,3-benzodiazole-5-carboxylic acid] was 0.83 nM; that for `O=C(O)c1c[nH]nc1-c1ccc2c(c1)nc(CN1CCC(c3cccc(OCc4ccc(Cl)cc4F)n3)CC1)n2C[C@@H]1CCO1` [Compound 214a, 3-{2-[(4-{6-[(4-chloro-2-fluorophenyl)methoxy]pyridin-2-yl}piperidin-1-yl)methyl]-1-{[(2S)-oxetan-2-yl]methyl}-1H-1,3-benzodiazol-5-yl}-1H-pyrazole-4-carboxylic acid] was 4.2 nM; that for `Fc1cc(Cl)ccc1COc1cccc(C2CCN(Cc3nc4cc(-c5ccn[nH]5)ccc4n3C[C@@H]3CCO3)CC2)n1` [Compound 215a, 2-[(4-{6-[(4-chloro-2-fluorophenyl)methoxy]pyridin-2-yl}piperidin-1-yl)methyl]-1-{[(2S)-oxetan-2-yl]methyl}-5-(1H-pyrazol-5-yl)-1H-1,3-benzodiazole] was 2.7 nM. The value for `Fc1cc(Cl)ccc1COc1cccc(C2CCN(Cc3nc4cc(-c5ccn(C6CCCOC6)n5)ccc4n3C[C@@H]3CCO3)CC2)n1` (stereo partly drawn) [Compound 216a, 2-[(4-{6-[(4-chloro-2-fluorophenyl)methoxy]pyridin-2-yl}piperidin-1-yl)methyl]-5-[1-(oxan-3-yl)-1H-pyrazol-3-yl]-1-{[(2S)-oxetan-2-yl]methyl}-1H-1,3-benzodiazole] was 8.8 nM; that for `Fc1cc(Cl)ccc1COc1cccc(C2CCN(Cc3nc4cc(/C=C/c5cccnc5)ccc4n3C[C@@H]3CCO3)CC2)n1` [Compound 217a, 2-[(4-{6-[(4-chloro-2-fluorophenyl)methoxy]pyridin-2-yl}piperidin-1-yl)methyl]-1-{[(2S)-oxetan-2-yl]methyl}-5-[(E)-2-(pyridin-3-yl)ethenyl]-1H-1,3-benzodiazole] was 4.6 nM; that for `CC1(c2ccc(Cl)cc2F)Oc2cccc(C3CCN(Cc4nc5cc(-c6nnn[nH]6)ncc5n4C[C@@H]4CCO4)CC3)c2O1` (stereo partly drawn) [Compound 218a, 4-[2-(4-chloro-2-fluorophenyl)-2-methyl-2H-1,3-benzodioxol-4-yl]-1-[(3-{[(2S)-oxetan-2-yl]methyl}-6-(1H-1,2,3,4-tetrazol-5-yl)-3H-imidazo[4,5-c]pyridin-2-yl)methyl]piperidine] was 0.013 nM. Take `CC1(c2ccc(Cl)cc2F)Oc2cccc(C3CCN(Cc4nc5cc(-c6n[nH]c(=O)o6)ccc5n4C[C@@H]4CCO4)CC3)c2O1` (stereo partly drawn) [Compound 219a, 5-[2-({4-[2-(4-chloro-2-fluorophenyl)-2-methyl-2H-1,3-benzodioxol-4-yl]piperidin-1-yl}methyl)-1-{[(2S)-oxetan-2-yl]methyl}-1H-1,3-benzodiazol-5-yl]-2,3-dihydro-1,3,4-oxadiazol-2-one]: a half-maximal response (EC50) required 1.6 nM. The value for `Cn1nc(-c2ccc3c(c2)nc(CN2CCC(c4cccc5c4OC(C)(c4ccc(Cl)cc4F)O5)CC2)n3C[C@@H]2CCO2)oc1=O` (stereo partly drawn) [Compound 220a, 5-[2-({4-[2-(4-chloro-2-fluorophenyl)-2-methyl-2H-1,3-benzodioxol-4-yl]piperidin-1-yl}methyl)-1-{[(2S)-oxetan-2-yl]methyl}-1H-1,3-benzodiazol-5-yl]-3-methyl-2,3-dihydro-1,3,4-oxadiazol-2-one] was 2.8 nM.

`CC1(c2ccc(Cl)cc2F)Oc2cccc(C3CCN(Cc4nc5cc(-c6n[nH]c(=O)s6)ccc5n4C[C@@H]4CCO4)CC3)c2O1` (stereo partly drawn) [Compound 221a, 5-[2-({4-[2-(4-chloro-2-fluorophenyl)-2-methyl-2H-1,3-benzodioxol-4-yl]piperidin-1-yl}methyl)-1-{[(2S)-oxetan-2-yl]methyl}-1H-1,3-benzodiazol-5-yl]-2,3-dihydro-1,3,4-thiadiazol-2-one] displayed an EC50 of 7.4 nM. The value for `CC1(c2ccc(Cl)cc2F)Oc2cccc(C3CCN(Cc4nc5cc(-c6noc(=O)[nH]6)c(F)cc5n4C[C@@H]4CCO4)CC3)c2O1` (stereo partly drawn) [Compound 222a, 3-[2-({4-[2-(4-chloro-2-fluorophenyl)-2-methyl-2H-1,3-benzodioxol-4-yl]piperidin-1-yl}methyl)-6-fluoro-1-{[(2S)-oxetan-2-yl]methyl}-1H-1,3-benzodiazol-5-yl]-4,5-dihydro-1,2,4-oxadiazol-5-one] was 0.55 nM.

Values taken from US20230391760A1, “HETEROCYCLIC GLP-1 AGONISTS” (Gasherbrum Bio, Inc., priority 2020, published 2023).
